In PMC5826112, “Intrapulmonary Pharmacokinetics of Relebactam, a Novel β-Lactamase Inhibitor, Dosed in Combination with Imipenem-Cilastatin in Healthy Subjects” (Antimicrobial Agents and Chemotherapy, 2018):
Where two headings read alike, the source gives them in different places.

Legend:
[1] = Intrapulmonary (ELF, AC) and plasma pharmacokinetics after multiple-dose IV relebactam with imipenem-cilastatin, bronchoscopy/BAL, noncompartmental analysis; format: in vivo, human (healthy subjects); conditions: for t1/2 (terminal half-life) / half-life / AUC(0-inf) / Cmax / Tmax / AUC(0-t): mean profile; for half-life: read-out: t1/2 (terminal half-life) (converted); for Kp at 1 h: 1.0 h after last dose; for Kp at 3 h: 3.0 h after last dose; for AUC(0-inf): noncompartmental analysis; for AUC(0-t): read-out: AUC0–3
Protocol: Dosing and administration of imipenem-cilastatin were carried out in a manner consistent with the recommended labeled posology. BAL fluid specimens were obtained during bronchoscopy for the determination of the relebactam and imipenem concentrations in the ELF and AC. Four aliquots of normal saline (50 ml each) were sequentially instilled and aspirated after each instillation. The first aspirate was discarded, and the remaining aspirates were pooled and used to obtain urea and drug level measurements. Aliquots were obtained for cell count/differential, and the remainder of the pooled aspirates was centrifuged. The liquid aspirate and cell pellet were separated and stored at −70°C. The supernatant was sent for urea and drug level measurements. Blood samples were collected prior to the first and fifth doses of study drug for the determination of relebactam and imipenem plasma concentrations. Blood samples were also collected during the bronchoscopy/BAL procedure for the determination of relebactam, imipenem, and urea concentrations. Relebactam and imipenem levels in plasma, pulmonary ELF, and AC were measured simultaneously via acetonitrile protein precipitation and hydrophilic interaction liquid chromatography (HILIC) with detection via liquid chromatography-tandem mass spectrometry (LC-MS/MS). The system consisted of a Waters Acquity ultraperformance liquid chromatograph (Waters Corp., Milford, MA) and an API 4000 or 5000 triple-quadrupole tandem mass spectrometer (Sciex, Framingham, MA) equipped with a turbo-ion spray interface and operated in the positive ionization mode. The multiple reaction monitoring (MRM) transitions monitored were m/z 349 → 269 for relebactam, m/z 300 → 98 for imipenem, and m/z 354 → 274 and m/z 307 → 98 for their respective internal standards. […] The ELF volumes recovered by BAL were determined by using urea as an endogenous marker to provide a dilution ratio by measurement of urea concentrations in the BAL fluid and serum ([33]). […] The mean value for each time point was used to conduct the noncompartmental analysis using Phoenix (version 6.3) software (Pharsight Corporation, Mountain View, CA) and to calculate the values of the PK parameters on the basis of the mean profile in each matrix.

[2] = no reference given; cited from earlier work
[3] = Safety and tolerability in healthy subjects; format: in vivo, human (healthy subjects); conditions: with imipenem-cilastatin
Source text: The safety and tolerability of relebactam were monitored by clinical assessment of adverse events, measurement of vital signs, and performance of a physical examination, 12-lead electrocardiogram (ECG), and standard laboratory safety tests (hematology, chemistry, and urinalysis). Renal function (established by determination of serum/urine creatinine, serum urea, urine protein, and urine albumin concentrations) and hepatic function (established by determination of serum bilirubin, alanine aminotransferase, and aspartate aminotransferase concentrations) were carefully monitored during the study. The safety of bronchoscopy and BAL was monitored by clinical assessment, including continuous cardiac monitoring and repeated measurements of vital signs, according to the standard operating procedures at the study site. All data were analyzed according to the treatment actually received. Safety and tolerability were assessed in the all-subjects-as-treated (AST) population, defined as all subjects who received at least one dose of study drug.

[4] = Relebactam population PK model (two-compartment plasma model with time-invariant ELF partition coefficient); format: in vivo, human (healthy subjects)
Protocol: Population PK analysis was conducted using NONMEM (version 7.3) software (ICON plc., Dublin, Ireland). The first-order conditional estimation with interaction (FOCEI) method was applied for parameter estimation. […] To elucidate the relationship between plasma and ELF concentrations, penetration into the ELF was explored using three approaches, each using a naive pooled data approach: (i) a three-compartment model with bidirectional mass transfer between the ELF compartment and the central volume, (ii) a time-invariant partition coefficient driven by the predicted unbound plasma concentration, and (iii) an effect compartment with an input rate constant driven by the concentration difference between the volume in the central compartment and the effect compartment.
The equations comprising the partition coefficient model are as follows: (1) dA1/dt=Q2/V2A2−Q2/V1A1−CL/V1A1 (2) dA2/dt=Q2/V1A1−Q2/V2A2 (3) CELF=kELF·fu,REL·A1/V1 where A1 is the amount of drug in the central compartment, A2 is the amount of drug in the peripheral compartment, CL is the plasma clearance, Q2 is the intercompartmental clearance, V1 is the volume of distribution in the central compartment, V2 is the volume of distribution in the peripheral compartment, CELF is the relebactam concentration in the ELF, fu,ELF is the free fraction of relebactam in plasma (∼80%), kELF is the partition coefficient for distribution into the ELF space, and t is time.
The free fraction in the ELF was assumed to be 100%. Different residual error models (additive, proportional, and combined) were tested for both the plasma and ELF concentrations of relebactam. Model development, including the selection of the structural and residual error model, was based upon the success of minimization, numerical comparison of the objective function values, the precision of the parameter estimates, and the generation of standard model diagnostic plots. The PK of imipenem were not modeled, as the lung penetration data from this study were previously described using a population PK approach ([21]).

[5] = set-up: method as in PMID 27503659, PMID 28575389; conditions: coadministration with imipenem-cilastatin, phase 2 clinical studies; cited from earlier work
[6] = set-up: method as in PMID 25403667; conditions: thigh infection model; cited from earlier work
[7] = both sexes, human, AC/plasma, intravenous, same regimen, n=4, read-out: AC/plasma concn GMR (90% CI)
[8] = both sexes, human, ELF/plasma, intravenous, same regimen, n=4, read-out: ELF/plasma concn GMR (90% CI)
[9] = both sexes, human, intravenous, AC, same regimen
[10] = both sexes, human, intravenous, ELF, same regimen
[11] = both sexes, human, intravenous, plasma, same regimen

For O=C(NC1CCNCC1)[C@@H]1CC[C@@H]2CN1C(=O)N2OS(=O)(=O)O [relebactam], the “t1/2 (terminal half-life)” value ([1]; AC, same regimen) was 2.25 h, the “t1/2 (terminal half-life)” value ([1]; ELF, same regimen) was 1.29 h and the “GMR for the relebactam concentration versus the imipenem concentration in ELF” value ([1]; at the Tmax of imipenem (0.5 h), 90% CI 45%, 49%) was 47%. For the same compound, the half-life ([1]; both sexes, human, AC, intravenous, AC, same regimen) was 2.3 h, the Kp ([1]; both sexes, human, AC/plasma, intravenous, mean profiles, after adjustment for protein binding, read-out: relative exposure (AUC0–∞) in AC versus plasma) was 0.36 and the Kp ([1]; both sexes, human, AC/plasma, intravenous, same regimen, 0.5 to 3 h after last dose, read-out: GMRs for AC/plasma concentrations, range across time points) was 0.14 to 0.51. The Kp at 0.5 h ([1]; both sexes, human, AC/plasma, intravenous, same regimen, 0.5 h after last dose, n=4, read-out: AC/plasma concn GMR (90% CI)) was 0.14, the Kp at 1 h [1, 7] was 0.25 and the Kp at 1.5 h ([1]; both sexes, human, AC/plasma, intravenous, same regimen, 1.5 h after last dose, n=4, read-out: AC/plasma concn GMR (90% CI)) was 0.38. The Kp at 3 h [1, 7] was 0.51, the half-life ([1]; both sexes, human, ELF, intravenous, ELF, same regimen) was 1.3 h and the concentration at 0.5 h ([1]; both sexes, human, ELF, intravenous, same regimen, 0.5 h after last dose, n=4, read-out: concn in ELF, GM) was 14.9 µM. The concentration at 1 h ([1]; both sexes, human, ELF, intravenous, same regimen, 1 h after last dose, n=4, read-out: concn in ELF, GM) was 10.9 µM, the concentration at 1.5 h ([1]; both sexes, human, ELF, intravenous, same regimen, 1.5 h after last dose, n=4, read-out: concn in ELF, GM) was 9.49 µM and the concentration at 3 h ([1]; both sexes, human, ELF, intravenous, same regimen, 3 h after last dose, n=4, read-out: concn in ELF, GM) was 4.27 µM. The Kp ([1]; both sexes, human, ELF/plasma, intravenous, calculated as 100 · ELF AUC0–∞/plasma AUC0–∞/0.8, adjusted for protein binding (80% unbound in plasma, 100% free in ELF), read-out: Adjusted ELF/plasma AUC0–∞ ratio) was 0.54, the Kp ([1]; both sexes, human, ELF/plasma, intravenous, calculated as 100 · ELF AUC0–∞/plasma AUC0–∞, mean profiles, read-out: ELF/plasma AUC0–∞ ratio) was 0.43 and the Kp ([1]; both sexes, human, ELF/plasma, intravenous, same regimen, 0.5 to 3 h after last dose, read-out: GMRs for ELF/plasma concentrations, range across time points) was 0.32 to 0.51. It also gave a Kp at 1 h [1, 8] of 0.35, a Kp at 1.5 h ([1]; both sexes, human, ELF/plasma, intravenous, same regimen, 1.5 h after last dose, n=4, read-out: ELF/plasma concn GMR (90% CI)) of 0.51 and a Kp at 3 h [1, 8] of 0.46. It also gave a Kp at 0.5 h ([1]; both sexes, human, ELF/plasma, iv, healthy subjects, relebactam 250 mg with imipenem-cilastatin 500 mg IV every 6 h, 5 doses, 0.5 h after last dose, n=4, read-out: ELF/plasma concn GMR (90% CI)) of 0.32, an AUC(0-inf) [1, 9] of 23.6 µM·h and a Cmax [1, 9] of 7.81 µM. The Tmax [1, 9] was 1 h, the AUC(0-t) [1, 9] was 12.8 µM·h and the AUC(0-inf) [1, 10] was 34.9 µM·h. For the same compound, the Cmax [1, 10] was 15.3 µM, the Tmax [1, 10] was 0.5 h and the AUC(0-t) [1, 10] was 26.7 µM·h. It also gave an AUC(0-inf) [1, 11] of 81.2 µM·h, a Cmax [1, 11] of 47.9 µM and a Tmax [1, 11] of 0.5 h. For the same compound, the AUC(0-t) [1, 11] was 64.7 µM·h, the half-life ([1]; both sexes, human, plasma, intravenous, plasma, same regimen) was 1.2 h and the “Adjusted ELF/plasma AUC0–∞ ratio” value ([1]; calculated as 100 · ELF AUC0–∞/plasma AUC0–∞/0.8, adjusted for protein binding (80% unbound in plasma, 100% free in ELF)) was 53.7%. The “t1/2 (terminal half-life)” value ([1]; plasma, same regimen) was 1.24 h, the “Relebactam/imipenem concn ratio in ELF, GMR” value ([1]; same regimen, 0.5 h after last dose) was 0.47 and the “Relebactam/imipenem concn ratio in ELF, GMR” value ([1]; same regimen, 1 h after last dose) was 0.54. For the same compound, the “Relebactam/imipenem concn ratio in ELF, GMR” value ([1]; same regimen, 1.5 h after last dose) was 0.58, the “Relebactam/imipenem concn ratio in ELF, GMR” value ([1]; same regimen, 3 h after last dose) was 0.71 and the “unbound in plasma (free fraction)” value [2] was about 80%. The tolerability [3] was “sufficiently well tolerated”, the Kp ([4]; human, ELF / unbound plasma, intravenous, driven by predicted unbound plasma concentration, read-out: Penetration coefficient for ELF (θkELF)) was 0.553 and the Kp ([4]; human, ELF/unbound plasma, intravenous, based on free drug levels, read-out: time-invariant partition coefficient (ELF) estimated by the model) was 0.55. The clearance ([4]; human, plasma, intravenous, population PK structural model, read-out: Clearance (θCL) (converted)) was 153 mL/min, the Vd ([4]; human, plasma, intravenous, population PK structural model, read-out: Volume of distribution in the central compartment (θVc)) was 15.3 L and the “Intercompartmental clearance (θQ2)” value ([4]; population PK structural model) was 2.64 L/h. The “Volume of distribution in the peripheral compartment (θVp)” value ([4]; population PK structural model) was 10.6 L, the tolerability [5] was “generally well tolerated” and the “required exposure (AUC0–24) for efficacy” value [6] was about 100 µM·h.
